# In patent US4119667A, “Haloaniline derivatives as plant growth modifiers” (Rohm and Haas Company, priority 1974, dated 1978):
# Like-named read-outs stand apart in the source and are kept apart here.
# Tested on: soybean (Var. Clark)
# Assay: greenhouse growth regulator test on soybean (Table I)
# Type: in vivo
# Conditions: two weeks after application; for Injury (0-10): 0-10 scale, 0 = no effect, 10 = complete kill; for pest or weed control / pest or weed control at 2241.7 g/ha: Glycine max, foliar, 336 h, relative to control, read-out: Height (% inhib.)
# Source text: Limited greenhouse experiments shown that there is promotion of lateral bud growth when compounds are applied at higher concentrations and earlier timings and an increase in soybean pod numbers at lower rates applied just prior to or at the flowering stage. […] Three parameters are reported in Table I to indicate the general spectrum of activity for each evaluated compound including the propensity for releasing lateral bud growth in soybeans. These are: (a) plant height measured as percent inhibition relative to the control; (b) the number of lateral buds per plant; and (c) phytotoxic injury on a scale of 0 to 10 (10 being maximum injury). Sampling compounds were evaluated in the greenhouse in a special growth regulator test. Four to five soybean seeds (Var. Clark) were planted in 4-inch pots with a humus-soil mixture. Two weeks after planting, two uniform plants were selected from each pot for treatment. The candidate compounds were dissolved in acetone-water (1:1), and applied as a foliar spray in a carrier volume of 50 gallons per acre, using a moving belt sprayer at a rate of 1/4, 1/2 and 2 lbs/acre. Six plants were used for each treatment. Two weeks after application, the number of laterals per plant, plant injury (0-10 scale; 0 = no effect, 10 = complete kill,) and the height of each plant were recorded. Untreated plants were used as controls.
SMILES,No. Laterals per plant (1/2 lbs/acre foliar spray),Injury (0-10) (1/2 lbs/acre),No. Laterals per plant (1/4 lbs/acre foliar spray),Injury (0-10) (1/4 lbs/acre),No. Laterals per plant (2 lbs/acre foliar spray),Injury (0-10) (2 lbs/acre),pest or weed control (1/2 lbs/acre foliar spray),pest or weed control (1/4 lbs/acre foliar spray),pest or weed control at 2241.7 g/ha (2 lbs/acre foliar spray)
"Clc1ccc(NCNc2ccc(Cl)c(Cl)c2)cc1Cl [II, n,n'-bis[3,4-dichlorophenyl]methanediamine]",0,2,2,3,5,2,15%,20%,7%
"Brc1cc(Br)cc(NCNc2cc(Br)cc(Br)c2)c1 [III, n,n'-bis[3,5-dibromophenyl]methanediamine]",0,1,0,1,3,1,2%,0%,0%
"Clc1ccc(N=Cc2ccccc2Cl)cc1Cl [IX, 3,4-dichloro-N-(2-chlorobenzylidene)aniline]",4,0,0,0,4,2,23%,0%,12%
"Clc1cc(Cl)cc(N=Cc2ccccc2Cl)c1 [V, 3,5-dichloro-N-(2-chlorobenzylidine)aniline]",3,0,2,0,5,0,8%,1%,13%
"Clc1cccc(C=Nc2cc(Cl)cc(Cl)c2)c1 [VI, 3,5-dichloro-N-(3-chlorobenzylidene)aniline]",3,1,2,2,5,1,21%,–,13%
"Clc1ccc(C=Nc2cc(Cl)cc(Cl)c2)cc1 [VII, 3,5-dichloro-N-(4-chlorobenzylidene)aniline]",4,0,2,0,5,0,9%,–,13%
"Clc1cc(Cl)cc(N=Cc2c(Cl)cccc2Cl)c1 [VIII, 3,5-dichloro-N-(2,6-dichlorobenzylidene)aniline]",2,0,0,0,5,0,7%,1%,15%
